From patent US6875761B2 (Eisai Co., Ltd., priority 1997, dated 2005)
Where a name gives a salt, the structure may show the parent alone.

Legend:
serotonin 2 receptor = target: T1, serotonin 2 receptor (Rattus norvegicus, UniProt P14842); experiment: Binding test on [3H] ketanserin, cerebral cortex receptor fraction; design: species or system SD rats; settings: 0.3 nM [3H] ketanserin, 37° C. 15 min, read-out: 5HT2
T1 construct: To the receptor fraction of the cerebral cortex were added a test compound and 0.3 nM of [^3H] ketanserin; from tissue; host or cells: rat cerebral cortex membrane fraction
T1 sequence (P14842 whole entry): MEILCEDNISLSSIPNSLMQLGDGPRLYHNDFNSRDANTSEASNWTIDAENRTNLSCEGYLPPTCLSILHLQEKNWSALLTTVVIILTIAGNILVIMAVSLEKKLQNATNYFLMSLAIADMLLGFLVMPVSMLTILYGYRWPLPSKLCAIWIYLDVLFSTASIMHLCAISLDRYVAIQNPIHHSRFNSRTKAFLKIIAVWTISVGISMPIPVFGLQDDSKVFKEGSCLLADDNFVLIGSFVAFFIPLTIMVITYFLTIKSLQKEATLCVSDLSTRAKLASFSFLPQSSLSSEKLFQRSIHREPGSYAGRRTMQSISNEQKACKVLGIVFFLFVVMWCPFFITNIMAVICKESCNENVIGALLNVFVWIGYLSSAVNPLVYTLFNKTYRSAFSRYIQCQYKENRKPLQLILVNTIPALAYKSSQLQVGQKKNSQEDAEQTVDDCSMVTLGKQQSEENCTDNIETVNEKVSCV

serotonin 1A receptor = target: T2, serotonin 1A receptor (Rattus norvegicus, UniProt P19327); experiment: Binding test on [3H] 8-hydroxy-dipropylaminotetralin, hippocampus receptor fraction; design: species or system SD rats; settings: rat hippocampus receptor fraction, 0.5 nM [3H] 8-OH-DPAT, room temperature 30 min; read-out: 5HT1
T2 construct: To the receptor fraction of the hippocampus were added a test compound and 0.5 nM of [^3H]; 8-hydroxy-dipropylaminotetralin; from tissue; host or cells: rat hippocampus membrane fraction
T2 sequence (P19327 1-422): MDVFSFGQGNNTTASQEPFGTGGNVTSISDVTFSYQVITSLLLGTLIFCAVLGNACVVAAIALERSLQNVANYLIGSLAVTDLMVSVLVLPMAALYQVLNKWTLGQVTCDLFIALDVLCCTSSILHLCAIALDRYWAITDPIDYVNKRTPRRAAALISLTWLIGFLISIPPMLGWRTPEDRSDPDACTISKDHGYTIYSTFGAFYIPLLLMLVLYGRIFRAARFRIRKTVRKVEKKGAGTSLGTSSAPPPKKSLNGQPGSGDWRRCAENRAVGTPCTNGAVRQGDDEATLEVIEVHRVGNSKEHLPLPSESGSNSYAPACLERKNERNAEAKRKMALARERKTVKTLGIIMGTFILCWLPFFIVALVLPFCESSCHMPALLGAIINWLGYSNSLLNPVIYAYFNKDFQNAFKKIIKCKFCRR

| Compound | Ki (serotonin 2 receptor) | Ki (serotonin 1A receptor) |
| --- | --- | --- |
| CCN1CCN(c2nc(-c3ccc(S(=O)(=O)N4CCS(=O)(=O)CC4)cc3)cc3ccccc23)CC1 [Example 77, 3-[(1,1-Dioxythiomorpholinyl)Sulfonylphenyl]-1-(4-Ethylpiperazin-1-Yl)Isoquinoline Hydrochloride] | 90.5 nM | 13.6 nM |
| CCN1CCN(c2nc(-c3ccc(OCCO)c(C#N)c3)cc3ccccc23)CC1 [Example 417, 1-(4-ethylpiperazin-1-yl)-3-[3-cyano-4-(2-hydroxyethoxy)phenyl]isoquinoline] | 4.5 nM | 13.4 nM |
| CCN1CCN(c2nc(-c3ccc(OCC(C)(C)O)cc3)cc3sccc23)CC1 [Example 290, 6-[4-(2-methyl-2-hydroxypropoxy)phenyl]-4-(4-ethylpiperazin-1-yl)thieno[3,2-c]pyridine dihydrochloride] | 1.35 nM | 54.7 nM |
| CCN1CCN(c2nc(-c3ccc4c(c3)CCC4=O)cc3ccccc23)CC1 [Example 414, 1-(4-ethylpiperazin-1-yl)-3-(1-indanon-5-yl)isoquinoline] | 4.2 nM | 17.3 nM |
| CCN1CCN(c2nc(-c3ccc(S(C)(=O)=O)cc3)cc3ccsc23)CC1 [Example 445, 7-(4-ethylpiperazin-1-yl)-5-(4-methanesulfonylphenyl)thieno)[2,3-c]pyridine dihydrochloride] | 90.4 nM | 5.46 nM |
| CCNS(=O)(=O)Cc1ccc(-c2cc3ccccc3c(N3CCN(CC)CC3)n2)cc1 [Example 80, 3-(4-Ethylaminosulfonylmethylphenyl)-1-(4-Ethylpiperazin-1-Yl)Isoquinoline Hydrochloride] | 16.3 nM | 0.8 nM |
| CCN1CCN(c2nc(-c3ccc(C4(O)CCOCC4)cc3)cc3ccccc23)CC1 [Example 410, 1-(4-ethylpiperazin-1-yl)-3-[4-(4-hydroxytetrahydropyran-4-yl)phenyl]isoquinoline] | 2.1 nM | 21.1 nM |
| CCN1CCN(c2nc(/C=C/c3cc(N4CCOCC4)ncn3)cc3ccccc23)CC1 [Example 215, 3{(E)-2-[4-(4-morpholinyl)pyrimidin-6-yl]ethenyl}-1-(4-ethylpiperazin-1-yl)isoquinoline oxalate] | 20.9 nM | 51.9 nM |
| CCN1CCN(c2nc(-c3ccc(OC)nc3)cc3ccccc23)CC1 [Example 344, 1-(4-ethylpiperazin-1-yl)-3-(2-methoxypyridin-5-yl)isoquinoline] | 35.9 nM | 10.7 nM |
| CCN1CCN(c2nc(-c3ccc(C(N)=O)cc3)cc3ccccc23)CC1 [Example 408, 1-(4-ethylpiperazin-1-yl)-3-(4-carbamoylphenyl)isoquinoline] | 36.3 nM | 19.8 nM |
| CCN1CCN(c2nc(-c3ccc(N4CCSCC4)nc3)cc3ccsc23)CC1 [Example 264, 5-[2-(4-thiomorpholinyl)pyridin-5-yl]-7-(4-ethylpiperazine-1-yl)thieno[2,3-c]pyridine Hydrochloride] | 3.34 nM | 61.3 nM |
| CCN1CCN(c2nc(-c3ccc([C@H]4CC[C@@H](O)CC4)cc3)cc3ccccc23)CC1 [Example 397, 1-(4-Ethylpiperazin-1-yl)-3-[4-(cis-4-Hydroxycyclohexyl)Phenyl]Isoquinoline Dihydrochloride] | 0.9 nM | 53.3 nM |
| CCN1CCN(c2nc(-c3ccc(OCC(O)COC)cc3)cc3ccccc23)CC1 (stereo not drawn) [Example 343, 1-(4-ethylpiperazin-1-yl)-3-[4-(2-hydroxy-3-methoxypropoxy)phenyl]isoquinoline dihydrochloride] | 5.7 nM | 35.7 nM |
| CCN1CCN(c2nc(-c3ccc(C(O)CO)cc3)cc3ccccc23)CC1 (stereo not drawn) [Example 387, 1-(4-Ethylpiperazin-1-yl)-3-[4-(1,2-Dihydroxyethyl)Phenyl]Isoquinoline Dihydrochloride] | 24.7 nM | 25.1 nM |
| CCN1CCN(c2nc(-c3ccc(COCCO)cc3)cc3ccccc23)CC1 [Example 44, 3-[4-(2-Hydroxyethoxylmethylphenyl]-1-(4-ethylpiperazin-1-Yl)Isoquinoline Hydrochloride] | 9 nM | 55.4 nM |
| CCN1CCN(c2nc(-c3ccc(OCC(N)=O)cc3)cc3ccccc23)CC1 [Example 338, 1-(4-ethylpiperazin-1-yl)-3-(4-carbamoylmethoxyphenyl)isoquinoline dihydrochloride] | 61.9 nM | 14.1 nM |

Continued by falling Ki (serotonin 2 receptor), values first:

| Ki (serotonin 2 receptor) | Ki (serotonin 1A receptor) | Compound |
| --- | --- | --- |
| 66.6 nM | 29.3 nM | CCN1CCN(c2nc(-c3ccc(OCCOC)c(OCCOC)c3)cc3ccccc23)CC1 [Example 43, 3-[3,4-Di(2-Methoxyethoxy)Phenyl]-1-(4-Ethylpiperazin-1-Yl)Isoquinoline Hydrochloride] |
| 36.2 nM | 4.7 nM | CCN1CCN(c2nc(-c3cnc(CCCOC)s3)cc3ccccc23)CC1 [Example 172, 1-(1-ethylpiperazin-4-yl)-3-[2-(3-methoxypropyl)thiazol-5-yl]isoquinoline oxalate] |
| 21.8 nM | 37.2 nM | CCN1CCN(c2nc(-c3ccc(N4C[C@@H](C)O[C@@H](C)C4)nc3)cc3ccccc23)CC1 [Example 149, 3-[2-(2,6-dimethylmorpholin-4-yl)pyridin-5-yl]-1-(4-ethylpiperazin-1-yl)isoquinoline trihydrochloride] |
| 21.6 nM | 14.8 nM | CCN1CCN(c2nc(-c3ccc(CCO)c(F)c3)cc3ccccc23)CC1 [Example 385, 1-(4-Ethylpiperazin-1-yl)-3-[3-Fluoro-4-(2-Hydroxyethyl)Phenyl]Isoquinoline Dihydrochloride] |
| 7.67 nM | 123 nM | CCN1CCN(c2nc(-c3ccc(OCC(C)(C)O)cc3)cc3cccnc23)CC1 [Example 250, 8-(1-ethylpiperazin-4-yl)-6-[4-(2-hydroxy-2-methylpropoxy)phenyl]-1,7-naphthyridine Dihydrochloride] |
| 5.5 nM | 13.5 nM | CCN1CCN(c2nc(-c3ccc(CCC(C)(C)O)nc3)cc3ccccc23)CC1 [Example 138, 1-(1-Ethylpiperazin-4-yl)-3-[2-(3-Hydroxy-3-Methylbutyl)Pyridin-5-yl]Isoquinoline Oxalate] |
| 4 nM | 14.8 nM | CCN1CCN(c2nc(-c3ccc(C#N)cc3)cc3ccccc23)CC1 [Example 62, 3-(4-Cyanophenyl)-1-(4-Ethylpiperazin-1-Yl)Isoquinoline Hydrochloride] |
| 2.5 nM | 28.2 nM | CCN1CCN(c2nc(-c3ccc(OCCO)c(F)c3)cc3ccccc23)CC1 [Example 369, 1-(4-ethylpiperazin-1-yl)-3-[3-fluoro-4-(2-hydroxyethoxy)phenyl]isoquinoline dihydrochloride] |
| 2.35 nM | 3.28 nM | CCN1CCN(c2nc(/C=C/c3ccccn3)cc3ccccc23)CC1 [Example 209, 1-(1-Ethylpiperazin-4-Yl)-3-[Trans-2-(2-Pyridyl)Ethenyl]Isoquinoline Trihydrochloride] |
| 0.14 nM | 80.9 nM | CN1CCN(c2nc(-c3ccc(OCC(C)(C)O)cc3)cc3sccc23)CC1 [Example 288, 6-[4-(2-methyl-2-hydroxypropoxy)phenyl]-4-(4-methylpiperazin-1-yl)thieno[3,2-c]pyridine hydrochloride] |
| 0.01 nM | 10.9 nM | CCN1CCN(c2nc(-c3ccc(C4CCOCC4)nc3)cc3ccccc23)CC1 [Example 156, 3-[2-(tetrahydropyran-4-yl)pyridin-5-yl]-1-(4-ethylpiperazin-1-yl)isoquinoline oxalate] |
